Like-named read-outs stand apart in the source and are kept apart here.
What was measured:
Assay type in all cases: cell-based
[1] = system: B16F10 (malignant melanoma); test: Antiproliferative activity (CCK-8 cell viability), B16F10; conditions: Mus musculus, 72 h, read-out: Antiproliferative activity in cancerous cells, B16F10 (inhibition of cell growth); for inhibition at 3.3 µM: B16-F10, Compound concentration: 3.3 μM; for inhibition at 10 µM: B16-F10, Compound concentration: 10 μM; for inhibition at 30 µM: B16-F10, Compound concentration: 30 μM
Method in brief: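 Cell growth inhibition was measured in B16F10 malignant melanoma cells with a Cell Counting Kit-8 viability assay. Cells were maintained in DMEM plus 10% fetal bovine serum, seeded at 2,000-5,000 cells/well in 96-well plates, and treated for 72 h at 37° C. Viability was expressed relative to DMSO-treated vehicle control wells.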

[2] = system: A431 (epidermoid carcinoma); test: Antiproliferative activity (CCK-8 cell viability), A431; conditions: Homo sapiens, 72 h, read-out: Antiproliferative activity in cancerous cells, A431 (inhibition of cell growth); for inhibition at 3.3 µM: A-431, Compound concentration: 3.3 μM; for inhibition at 10 µM: A-431, Compound concentration: 10 μM; for inhibition at 30 µM: A-431, Compound concentration: 30 μM
Method in brief: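 This growth inhibition assay used A431 cells maintained in Dulbecco's modified Eagle's medium plus 10% fetal bovine serum. Cells were seeded in 96-well plates, treated with compound for 72 h at 37° C., and then given 10 μL CCK-8 solution. After a further 4 h, absorbance was read at 450 nm.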

[3] = system: A549 (lung adenocarcinoma); test: Antiproliferative activity (CCK-8 cell viability), A549; conditions: Homo sapiens, 72 h; for inhibition at 3.3 µM: Compound concentration: 3.3 μM; for inhibition at 10 µM: Compound concentration: 10 μM; for inhibition at 30 µM: Compound concentration: 30 μM
Method in brief: (§1)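 Growth inhibition graded in bands from percent viability against DMSO vehicle, read as CCK-8 absorbance at 450 nm. Compound tested at 3.3, 10 or 30 μM for 72 h, 37 °C; media contained 10% FBS: DMEM for HepG2/SW480, MEM for HeLa, F-12K for A549.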

[4] = system: alpha-smooth muscle actin (α-SMA); test: Inhibition of TGF-β induced expression of alpha-smooth muscle actin (α-SMA) in CFSC cells (western blot); conditions: compound at 10 μM, TGF-β (10 ng/mL), 24 hours, band intensity vs TGF-β only
Method: The ability of a compound to inhabit the TGF-β induced expression of alpha-smooth muscle actin (α-SMA) was evaluated in CCl4-treated fat storing (CFSC) cells. α-SMA is considered as a reliable marker of hepatic stellate cell activation and a key biomarker for liver fibrosis.
CFSC cells maintained in a DMEM medium supplemented with 10% fetal bovine serum were seeded to 12-well culture dishes and grown to a confluence of 60-70% the next day. Culture was changed to a serum-free DMEM medium, and the cells were treated with a compound at 10 μM in the presence of TGF-β (10 ng/mL). The cells were incubated for another 24 hours. All culture was maintained at 37° C. in 5% carbon dioxide.
An NP-40 lysate solution (50 mM Tris (pH 7.4), 150 mM NaCl, 1% NP-40) with EDTA free cocktail added was used to lyse the cells on ice for 30 min. The lysate was collected and centrifuged at 4° C. for 10 min at 12,000 rpm. The pellet was discarded and the supernatant was transferred to a new tube. Cell lysates were loaded with 5× loading buffer and boiled for 10 min, resolved by 10% SDS-polyacrylamide gel electrophoresis (SDS-PAGE), and transferred to PVDF membrane. The membrane was blocked with 5% skim milk in Tris-buffered saline and TWEEN® 20 (TBST; 10 mM Tris-HCl (pH 8.0), 150 mM NaCl, 0.1% TWEEN® 20) for 1 h at room temperature and then incubated with α-SMA and β-actin antibodies overnight at 4° C. After washing twice with TBST, the membrane was probed with a horseradish […] anti-immunoglobulin (1:5000 dilution) for 1 h at room temperature. After two subsequent rinses in TBST, immunoreactive products were reacted with ECL and visualized by a UVP CHEMSTUDIO™ imaging system. The western blotting bands are quantitated using an ImageJ software. The percentage of inhibition was obtained by calculating the percentage decrease in the band intensity compared to the one treated with TGF-β only.
The results are summarized in Table 1, where A represents a value no less of 80% inhibition, B represents a value less than […] but no less than […], C represents a value less than 50% but no less than 30% inhibition, and D represents a value less than 30% inhibition with a compound at 10 μM.

HepG2 (liver cancer) = test: Antiproliferative activity (CCK-8 cell viability), HepG2; conditions: Homo sapiens, 72 h; for inhibition at 3.3 µM: Compound concentration: 3.3 μM; for inhibition at 10 µM: Compound concentration: 10 μM; for inhibition at 30 µM: Compound concentration: 30 μM
Method in brief: as §1

[5] = system: MDA-MB-231 (breast cancer); test: Antiproliferative activity (CCK-8 cell viability), MDA-MB-231; conditions: Homo sapiens, 72 h, read-out: Antiproliferative activity in cancerous cells, MDA-MB-231 (inhibition of cell growth); for inhibition at 3.3 µM: Compound concentration: 3.3 μM; for inhibition at 10 µM: Compound concentration: 10 μM; for inhibition at 30 µM: Compound concentration: 30 μM
Method in brief: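 Growth inhibition of human MDA-MB-231 breast cancer cells was assessed with a Cell Counting Kit-8. Cells cultured in DMEM plus 10% FBS were seeded at 2,000-5,000 cells/well, treated after attachment, and kept 72 h at 37° C. CCK-8 solution (10 μL) was added for 4 h, and absorbance at 450 nm was compared with DMSO-treated controls.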

HeLa (cervical cancer) = test: Antiproliferative activity (CCK-8 cell viability), HeLa; conditions: Homo sapiens, 72 h; for inhibition at 3.3 µM: Compound concentration: 3.3 μM; for inhibition at 10 µM: Compound concentration: 10 μM; for inhibition at 30 µM: Compound concentration: 30 μM
Method in brief: as §1

SW480 (colon cancer) = test: Antiproliferative activity (CCK-8 cell viability), SW480; conditions: Homo sapiens, 72 h, read-out: Antiproliferative activity in cancerous cells, SW480 (inhibition of cell growth); for inhibition at 3.3 µM: Compound concentration: 3.3 μM; for inhibition at 10 µM: Compound concentration: 10 μM; for inhibition at 30 µM: Compound concentration: 30 μM
Method in brief: as §1

[6] = read-out: Antiproliferative activity in cancerous cells, A549 (inhibition of cell growth)
[7] = read-out: Antiproliferative activity in cancerous cells, HepG2 (inhibition of cell growth)
[8] = read-out: Antiproliferative activity in cancerous cells, HELA (inhibition of cell growth)

Structure (SMILES)	inhibition at 3.3 µM [1]	inhibition at 10 µM [1]	inhibition at 3.3 µM [2]	inhibition at 10 µM [2]	inhibition at 3.3 µM [3, 6]	inhibition at 10 µM [3, 6]	inhibition at 10 µM [4]	inhibition at 3.3 µM (HepG2 (liver cancer); [7])	inhibition at 10 µM (HepG2 (liver cancer); [7])	inhibition at 3.3 µM [5]	inhibition at 10 µM [5]	inhibition at 3.3 µM (HeLa (cervical cancer); [8])	inhibition at 10 µM (HeLa (cervical cancer); [8])	inhibition at 3.3 µM (SW480 (colon cancer))	inhibition at 10 µM (SW480 (colon cancer))	inhibition at 30 µM [1]	inhibition at 30 µM [2]	inhibition at 30 µM [3, 6]	inhibition at 30 µM (HepG2 (liver cancer); [7])	inhibition at 30 µM [5]	also measured
O=C(O)CC1=C/C(=C/c2ccc(COc3ccccc3)cc2)c2ccc(F)cc21 [B3, (Z)-2-(5-Fluoro-1-(4-(phenoxymethyl)benzylidene)-1H-inden-3-yl)acetic acid]	≥ 50%	≥ 50%	< 30%	30 to 50%	30 to 50%	≥ 50%	> 80%	30 to 50%	30 to 50%	≥ 50%	≥ 50%	< 30%	< 30%	< 30%	30 to 50%	–	–	–	–	–	inhibition at 30 µM ([3]; read-out: Antiproliferative activity in cancerous cells, A549): 30 to 50%; inhibition at 30 µM (HepG2 (liver cancer); read-out: Antiproliferative activity in cancerous cells, HepG2): < 30%; inhibition at 30 µM (HeLa (cervical cancer); read-out: Antiproliferative activity in cancerous cells, HELA): < 30%
COc1ccc2c(c1)/C(=C\c1ccc(Oc3ccc(F)cc3)cc1)C(Cc1ccccc1)=C2CC(=O)O [C27, (Z)-2-(2-Benzyl-1-(4-(4-fluorophenoxy)benzylidene)-6-methoxy-1H-inden-3-yl)-acetic acid]	30 to 50%	≥ 50%	< 30%	≥ 50%	≥ 50%	≥ 50%	> 80%	≥ 50%	≥ 50%	≥ 50%	≥ 50%	≥ 50%	≥ 50%	< 30%	≥ 50%	–	–	–	–	–	–
CC1=C(CC(=O)O)c2cc(F)ccc2/C1=C/c1ccc(F)cc1OCc1ccccc1 [E5, (E)-2-(1-(2-(Benzyloxy)-4-fluorobenzylidene)-5-fluoro-2-methyl-1H-inden-3-yl)-acetic acid]	≥ 50%	≥ 50%	< 30%	30 to 50%	< 30%	≥ 50%	> 80%	30 to 50%	≥ 50%	30 to 50%	30 to 50%	< 30%	≥ 50%	30 to 50%	30 to 50%	≥ 50%	≥ 50%	≥ 50%	≥ 50%	≥ 50%	inhibition at 30 µM (HeLa (cervical cancer); [8]): ≥ 50%; inhibition at 30 µM (SW480 (colon cancer)): ≥ 50%
CC1=C(CCC(=O)O)c2ccccc2/C1=C/c1cccc(Oc2ccccc2)c1 [E10, (E)-3-(2-Methyl-1-(3-phenoxybenzylidene)-1H-inden-3-yl)propanoic acid]	< 30%	< 30%	< 30%	< 30%	< 30%	30 to 50%	< 30%	< 30%	< 30%	< 30%	< 30%	< 30%	< 30%	< 30%	< 30%	30 to 50%	< 30%	≥ 50%	< 30%	≥ 50%	inhibition at 30 µM (HeLa (cervical cancer); [8]): < 30%; inhibition at 30 µM (SW480 (colon cancer)): 30 to 50%
CC1=C(CC(=O)O)c2cc(F)ccc2/C1=C/c1cccc(Oc2cccc(C(F)(F)F)c2)c1 [E16, (E)-2-(5-Fluoro-2-methyl-1-(3-(3-(trifluoromethyl)phenoxy)benzylidene)-1H-inden-3-yl)acetic acid]	< 30%	< 30%	< 30%	< 30%	30 to 50%	30 to 50%	> 80%	< 30%	30 to 50%	30 to 50%	30 to 50%	≥ 50%	≥ 50%	< 30%	< 30%	≥ 50%	≥ 50%	≥ 50%	≥ 50%	≥ 50%	inhibition at 30 µM (HeLa (cervical cancer); [8]): ≥ 50%; inhibition at 30 µM (SW480 (colon cancer)): ≥ 50%
